Reference: patent US9988381B2, “Five-member-heterocycle fused pyridine compounds, method of producing the same, and use thereof” (SHANGHAI INSTITUTE OF MATERIA MEDICA, CHINESE ACADEMY OF …, priority 2013, dated 2018)
Read-outs that look alike come from different tables or passages of the source.

Tests used:
[1] = molecular target: T1, c-Met kinase domain recombinant protein (Homo sapiens, UniProt P08581); assay: biochemical; conditions: for inhibition at 10 µM: read-out: Average inhibition rate at 10 μM (%); for inhibition at 1 µM: read-out: Average inhibition rate at 1 μM (%); for inhibition at 0.1 µM: read-out: Average inhibition rate at 0.1 μM (%)
T1 construct: 50 μL diluted solution of c-Met kinase domain recombinant protein in reaction buffer was added to initiate the reaction
T1 sequence (P08581 1078-1345 limits assumed): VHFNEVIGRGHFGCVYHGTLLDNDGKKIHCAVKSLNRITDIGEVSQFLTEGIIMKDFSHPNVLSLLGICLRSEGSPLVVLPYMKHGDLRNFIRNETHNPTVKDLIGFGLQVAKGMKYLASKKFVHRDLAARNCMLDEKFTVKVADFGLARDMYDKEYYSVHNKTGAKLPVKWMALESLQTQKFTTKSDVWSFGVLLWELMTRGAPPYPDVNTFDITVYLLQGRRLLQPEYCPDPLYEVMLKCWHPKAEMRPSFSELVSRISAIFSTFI
Description: (§1) Enzymatic reaction substrate Poly(Glu,Tyr)4:1 was diluted to 20 μg/mL in potassium ion free PBS (10 mM sodium phosphate buffer, 150 mM NaCl, pH7.2-7.4), microplate was coated with this solution at 125 μL per well, and reacted at 37° C. for 12-16 hours. Liquid in wells was discarded, then the plate was washed 3 times for 5 minutes each with 200 μL per well of T-PBS (PBS containing 0.1% Tween-20).
Into each well was added 50 μL diluted ATP solution in reaction buffer (50 mM HEPES pH 7.4, 50 mM MgCl2, 0.5 mM MnCl2, 0.2 mM Na3VO4, 1 mM DTT), the final concentration was 5 μM. Test compound was diluted in DMSO to proper concentration, added at 1 μL per well or corresponding level of DMSO (negative control wells), then 49 μL diluted solution of c-Met kinase domain recombinant protein in reaction buffer was added to initiate the reaction, each test was setup with two wells of ATP free control. Reaction was performed in a 37° C. shaker (100 rpm) for 1 hour. The plate was washed three times with T-PBS. Primary antibody PY99 diluted solution was added at 100 μL per well, incubated in a 37° C. shaker for 0.5 hour.
The plate was washed three times with T-PBS. Goat anti mouse secondary antibody labeled with horseradish peroxidase was added at 100 μL per well, incubated in a 37° C. shaker for 0.5 hour. The plate was washed three times with T-PBS. […] Reaction was terminated by adding 50 μL per well of 2M H2SO4, the plate was read at 490 nm using a SPECTRA MAX 190 microplate reader with tunable wavelength.
(§2) Inhibition rate of the sample was calculated using the following equation: […]
IC50 was calculated by fitting the data for a four parameter fit using inhibition curve.

[2] = molecular target: T1, c-Met kinase domain recombinant protein; assay: biochemical; conditions: read-out: Inhibition rate at 10 μM (%)
Description: as §1, with “discarded. Plate washing:” for “discarded, then”, “(potassium ion free PBS” for “(PBS”
Into each well was added 49 μL diluted ATP solution in reaction buffer (50 mM HEPES pH 7.4, 50 mM MgCl2, 0.5 mM MnCl2, 0.2 mM Na3VO4, 1 mM DTT), and 1 μL per well of compound to be tested was added, then 50 μL diluted solution of c-Met kinase domain recombinant protein in reaction buffer was added to initiate the reaction, each test was setup with two wells of ATP free control. Reaction was performed in a 37° C. shaker (100 rpm) for 1 hour. Liquid in the wells was discarded, and the plate was washed three times with T-PBS.
Antibody PY99 was added at 100 μL per well (the antibody was 1:500 diluted in T-PBS containing 5 mg/mL BSA), incubated in a 37° C. shaker for 0.5 hour. Liquid in the wells was discarded, and the plate was washed three times with T-PBS.
Goat anti mouse secondary antibody labeled with horseradish peroxidase was added at 100 μL per well (the antibody was 1:2000 diluted in T-PBS containing 5 mg/mL BSA), incubated in a 37° C. shaker for 0.5 hour. Liquid in the wells was discarded, and the plate was washed three times with T-PBS.
Reaction was terminated by adding 50 μL per well of 2M H2SO4, the plate was read at 490 nm using a VERSAmax microplate reader with tunable wavelength.
as §2

inhibition at 10 µM [1] | inhibition at 10 µM [2] | inhibition at 1 µM [1] | inhibition at 0.1 µM [1] | IC50 [1] | SMILES
88.1% | 88.1% | – | – | – | Cn1cc(-c2cnc3ccn(S(=O)(=O)c4ccccc4[N+](=O)[O-])c3c2)cn1 [Compound 1, 1-(2-nitrobenzenesulfonyl)-6-[(1-methyl)-4-pyrazolyl]-1-H-pyrrolo[3,2-b]pyridine]
92.8% | 92.8% | 7% | – | – | Cn1cc(-c2cnc3[nH]nc(S(=O)(=O)c4ccccc4[N+](=O)[O-])c3c2)cn1 [Compound 2, 3-(2-nitrobenzenesulfonyl)-5-[(1-methyl)-4-pyrazolyl]-1-H-pyrazolo[3,4-b]pyridine]
84.6% | 84.6% | – | – | – | Cn1cc(-c2cnc3cnn(S(=O)(=O)c4ccccc4[N+](=O)[O-])c3c2)cn1 [Compound 3, 1-(2-nitrobenzenesulfonyl)-6-[(1-methyl)-4-pyrazolyl]-1-H-pyrazolo[4,3-b]pyridine]
44.1% | 44.1% | – | – | – | Cn1cc(-c2cnc3cnn(S(=O)(=O)c4ccccc4)c3c2)cn1 [Compound 4, 1-benzenesulfonyl-6-[(1-methyl)-4-pyrazolyl]-1-H-pyrazolo[4,3-b]pyridine]
57.5% | 57.5% | 33.8% | 2.1% | – | Cn1cc(-c2cnc3cnn(S(=O)(=O)c4cccc(F)c4)c3c2)cn1 [Compound 5, 1-(3-fluorobenzenesulfonyl)-6-[(1-methyl)-4-pyrazolyl]-1-H-pyrazolo[4,3-b]pyridine]
34.4% | 34.4% | – | – | – | Cn1cc(-c2cnc3cnn(S(=O)(=O)c4ccccc4F)c3c2)cn1 [Compound 6, 1-(2-fluorobenzenesulfonyl)-6-[(1-methyl)-4-pyrazolyl]-1-H-pyrazolo[4,3-b]pyridine]
40.7% | 40.7% | – | – | – | Cn1cc(-c2cnc3cnn(S(=O)(=O)c4ccc(F)cc4)c3c2)cn1 [Compound 7, 1-(4-fluorobenzenesulfonyl)-6-[(1-methyl)-4-pyrazolyl]-1-H-pyrazolo[4,3-b]pyridine]
– | – | 40% | – | – | O=S(=O)(c1c[nH]c2ncc(-c3cccc(Cl)c3)cc12)n1ncc2cccnc21 [Example 109, 1-[(3-chlorophenyl)-1-H-pyrrolo[2,3-b]pyridine-3-sulfonyl]-1-H-pyrazolo[3,4-b]pyridine]
– | – | 13.5% | – | – | O=S(=O)(c1c[nH]c2ncc(-c3ccc(N4CCOCC4)cc3)cc12)n1ncc2cccnc21 [Example 110, 1-[(4-morpholinylphenyl)-1-H-pyrrolo[2,3-b]pyridine-3-sulfonyl]-1-H-pyrazolo[3,4-b]pyridine]
– | – | 63.3% | 28.6% | – | Cn1cc(-c2cnc3cnn(S(=O)(=O)c4cccc5ccccc45)c3c2)cn1 [Example 111, 1-(naphthalene-1-sulfonyl)-6-[(1-methyl)-4-pyrazolyl]-1-H-pyrazolo[4,3-b]pyridine]
– | – | 48.8% | – | – | Cn1cc(-c2cnc3cnn(S(=O)(=O)c4ccc5ccccc5c4)c3c2)cn1 [Example 112, 1-(naphthalene-2-sulfonyl)-6-[(1-methyl)-4-pyrazolyl]-1-H-pyrazolo[4,3-b]pyridine]
– | – | 30.4% | – | – | Nc1ccc2ncc(S(=O)(=O)n3ncc4ncc(-c5cc(Cl)cc(Cl)c5)cc43)n2c1 [Example 114, 1-[(6-amino-imidazo[1,2-a]pyridine)-3-sulfonyl]-6-(3,5-dichlorophenyl)-1-H-pyrazolo[4,3-b]pyridine]
– | – | 95.7% | 46.6% | – | O=[N+]([O-])c1ccc2ncc(S(=O)(=O)n3ncc4ncc(-c5ccc(C(F)(F)F)cc5)cc43)n2c1 [Example 115, 1-[(6-nitro-imidazo[1,2-a]pyridine)-3-sulfonyl]-6-(4-trifluoromethylphenyl)-1-H-pyrazolo[4,3-b]pyridine]
– | – | 84.6% | 70.8% | 3.6 ± 0.6 nM | O=[N+]([O-])c1ccc2ncc(S(=O)(=O)n3ncc4ncc(-c5cc(F)c(F)c(F)c5)cc43)n2c1 [Example 116, 1-[(6-nitro-imidazo[1,2-a]pyridine)-3-sulfonyl]-6-(3,4,5-trifluorophenyl)-1-H-pyrazolo[4,3-b]pyridine]
– | – | 15.8% | – | – | Nc1ccc2ncc(S(=O)(=O)n3ncc4ncc(-c5ccccc5)cc43)n2c1 [Example 117, 1-[(6-amino-imidazo[1,2-a]pyridine)-3-sulfonyl]-6-phenyl-1-H-pyrazolo[4,3-b]pyridine]
– | – | 75.5% | 62.7% | – | Nc1ccc2ncc(S(=O)(=O)n3ncc4ncc(-c5ccc(F)cc5)cc43)n2c1 [Example 118, 1-[(6-amino-imidazo[1,2-a]pyridine)-3-sulfonyl]-6-(4-fluorophenyl)-1-H-pyrazolo[4,3-b]pyridine]
– | – | 26.4% | – | – | CCCCNc1ccc2ncc(S(=O)(=O)n3ncc4ncc(-c5cnn(C)c5)cc43)n2c1 [Example 119, 1-[(6-n-butylamino-imidazo[1,2-a]pyridine)-3-sulfonyl]-6-[(1-methyl)-4-pyrazolyl]-1-H-pyrazolo[4,3-b]pyridine]
– | – | 28.7% | – | – | CC(=O)Nc1ccc2ncc(S(=O)(=O)n3ncc4ncc(-c5cnn(C)c5)cc43)n2c1 [Example 120, 1-[(6-acetylamino-imidazo[1,2-a]pyridine)-3-sulfonyl]-6-[(1-methyl)-4-pyrazolyl]-1-H-pyrazolo[4,3-b]pyridine]
– | – | 100% | 72.9% | 190 ± 32.7 nM | COc1ccc2ncc(S(=O)(=O)n3ncc4ncc(-c5cncc6ccccc56)cc43)n2c1 [Example 122, 1-[(6-methoxy-imidazo[1,2-a]pyridine)-3-sulfonyl]-6-(4-isoquinolinyl)-1-H-pyrazolo[4,3-b]pyridine]
– | – | 99.3% | 87% | 51.5 ± 6 nM | COc1ccc2cc(-c3cnc4cnn(S(=O)(=O)c5cnc6ccc(OC)cn56)c4c3)ccc2c1 [Example 123, 1-[(6-methoxy-imidazo[1,2-a]pyridine)-3-sulfonyl]-6-(6-methoxy-2-naphthyl)-1-H-pyrazolo[4,3-b]pyridine]
– | – | 99.3% | 84.5% | 55.2 ± 5.6 nM | COc1ccc2ncc(S(=O)(=O)n3ncc4ncc(-c5cccc(C(F)(F)F)c5)cc43)n2c1 [Example 125, 1-[(6-methoxy-imidazo[1,2-a]pyridine)-3-sulfonyl]-6-(3-trifluoromethylphenyl)-1-H-pyrazolo[4,3-b]pyridine]
– | – | 99% | 93.9% | 30 ± 3.3 nM | O=S(=O)(c1cnc2ccc(O)cn12)n1ncc2ncc(-c3ccccc3)cc21 [Example 127, 1-[(6-hydroxy-imidazo[1,2-a]pyridine)-3-sulfonyl]-6-phenyl-1H-pyrazolo[4,3-b]pyridine]
– | – | 90.8% | 16.1% | – | CCOC(=O)c1cnc2cnn(S(=O)(=O)c3cnc4ccc(Br)cn34)c2c1 [Example 130, 1-[(6-bromo-imidazo[1,2-a]pyridine)-3-sulfonyl]-6-ethoxycarbonyl-1-H-pyrazolo[4,3-b]pyridine]
– | – | 83.6% | 75.1% | – | O=C(Nc1cnc2cnn(S(=O)(=O)c3cnc4ccc(Br)cn34)c2c1)c1ccccc1 [Example 131, 1-[(6-bromo-imidazo[1,2-a]pyridine)-3-sulfonyl]-6-benzamido-1-H-pyrazolo[4,3-b]pyridine]
– | – | 56.9% | 66.8% | – | COc1cccc(C(=O)Nc2cnc3cnn(S(=O)(=O)c4cnc5ccc(OC)cn45)c3c2)c1 [Example 134, 1-[(6-methoxy-imidazo[1,2-a]pyridine)-3-sulfonyl]-6-(3-methoxybenzamido)-1-H-pyrazolo[4,3-b]pyridine]
